Results published in PubChem BioAssay AID1963448 (Molecular Pharmacology Branch, DTP, NCI, 2024).
“And” between values parts separate entries of the source, which are not always exact repeats. Identical values can stand only once.

System: 616215-338-R-J1-PDC complex spheroid growth, % test/control
Test: Anticancer human tumor 616215-338-R-J1-PDC patient-derived colon adenocarcinoma cell line growth inhibition [Asc]
Settings: for IC50: curve of first compound; for viability, T/C: stronger effect = lower value; active = viability on the fitted dose curve at most 10% of control; inactive = the rest
Description: Multicellular complex tumor spheroid response to apoptosis pathway targeting inhibitors Alrizomadlin, Pelcitoclax, and Dasminapant in combination with a variety of drugs and investigational agents in selected tumor cell lines
The MDM2 inhibitor alrizomadlin, the Bcl-2/Bcl-xL inhibitor pelcitoclax, and the IAPs inhibitor dasminapant were evaluated both individually and in combination with standard of care and investigational anticancer small molecules within a complex spheroid model of solid tumors. . Complex spheroids include a stromal component modeled by human endothelial cells (HUVEC) and fibroblasts modeled by human mesenchymal stem cells (MSCs). The concentration ranges selected for each drug and investigational agent were based upon clinically achievable concentrations if the clinical Cmax of the agent was known.
Compounds. The drugs and investigational agents: alrizomadlin (APG-115; NSC831270), pelcitoclax (APG-1252; NSC835773), dasminapant (APG-1387;NSC834197), TAK-243 (NSC785004), copanlisib (NSC809693), olaparib (NSC753686), talazoparib (NSC767125), cobimetinib (NSC 768068), eltanexor (KPT-8602, NSC 794443), abemaciclib (NSC 768073), sotorasib (NSC818433), adagrasib (NSC 831453), MRTX-1133 (NSC 836407), Iadademestat (ORY1001, NSC 806812), and RMC-4630 (NSC839698), were obtained from the NCI Developmental Therapeutics Program Chemical Repository. The FDA-approved anticancer drug set is available from the Developmental Therapeutics Program at https://dtp.cancer.gov/organization/dscb/obtaining/available plates.htm. […] The stock solutions were prepared in dimethyl sulfoxide (DMSO, Sigma-Aldrich, St. Louis, MO, cat. D2650) at 800-fold the tested concentration and stored at -70 degrees C prior to their use. All drugs and investigational agents were tested over a range starting from a high concentration at or near the clinical Cmax and decreasing in half-log increments. If the clinical Cmax for an agent had not been determined, the highest concentration tested was 10 microM.
The patient-derived cancer (PDC) cell lines include five colon adenocarcinomas: 186277-243-T-J2-PDC, 616215-338-R-J1-PDC, 439559-082-T-J2-PDC, 463943-066-T-J2-PDC, and 519858-162-T-J1-PDC; three pancreatic carcinomas: 323965-272-R-J2-PDC, 521955-158-R6-J3-PDC, and 521955-158-R2-J5-PDC; two uterine sarcomas: 327498-152-R-J2-PDC and 993429-296-R-J1-PDC; two rhabdomyosarcomas: 755483-174-R-J1-PDC and 772245-204-R-J1-PDC; two soft tissue sarcomas: 126254-015-R-J1-PDC and 494315-158-R-J1-PDC; two malignant fibrous histiocytomas: 317291-083-R-J1-PDC and 596521-263-R-J1-PDC; two breast carcinomas: 171881-019-R-J1-PDC and 885512-296-R-J2-PDC; and one ovarian carcinoma: 6556581-035-R-J-PDC were obtained from the NCI PDMR, (https://pdmr.cancer.gov). The established cell lines HSSY-2 synovial sarcoma (RRID:CVCL 8719), SYO-1 synovial sarcoma (RRID:CVCL_7146), MPNST malignant peripheral neural sheath tumor were obtained from the Sloan Kettering Institute. The following established cell lines were purchased from the American Type Culture Collection (ATCC, Manassas, VA), Sor the received from the NCI repository:, PANC-1 pancreatic carcinoma (CRL-1469, RRID:CVCL_0480), OVCAR-5 ovarian carcinoma (RRID:CVCL_1628), OVCAR-8 ovarian carcinoma (RRID:CVCL_1629), , MCF-7 breast carcinoma (CRL-12584, RRID:CVCL_0031), MDA-MB-231 breast carcinoma (CRL-12532, RRID:CVCL_0062), NCI-H1876 small cell lung carcinoma (CRL-5902, RRID:CVCL_1503), NCI-H510A small cell lung carcinoma (HTB-184, RRID:CVCL_1565), NCI-H1417 (CRL-5869, RRID:CVCL_1469), and NCI-H196 small cell lung carcinoma (CRL-5823, RRID:CVCL_1509). Dr. Peter Houghton (Greehey Children's Cancer Research Institute, University of Texas Health Science Center, San Antonio, TX) provided Rh-18 rhabdomyosarcoma (RRID:CVCL_1659). Pooled donor human umbilical vein endothelial cells (HUVEC, Lonza, cat. CC-2519) and human mesenchymal stem cells (hMSC, Lonza, cat. PT-2501) were purchased from Lonza (Walkersville, MD).
Cell Culture. […]
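Also: spheroids exposed to agents for seven days before readout.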

Cn1ncnc1[C@H]1c2n[nH]c(=O)c3cc(F)cc(c23)N[C@@H]1c1ccc(F)cc1 + CCN1C(C(=O)NC23CCC(C(=O)O)(CC2)CC3)C(c2cccc(Cl)c2F)C2(C(=O)Nc3cc(Cl)ccc32)C12CCCCC2
inactive: viability, T/C (second compound 0.03 µM, first compound 0.000316 µM) 107% | viability, T/C (second compound 0.03 µM, first compound 0.001 µM) 103% | viability, T/C (second compound 0.03 µM, first compound 0.00316 µM) 97.8% | viability, T/C (second compound 0.03 µM, first compound 0.01 µM) 105% | viability, T/C (second compound 0.03 µM, first compound 0.0316 µM) 92.3% | viability, T/C (second compound 0.03 µM, first compound 0.1 µM) 85.5% | viability, T/C (second compound 0.0949 µM, first compound 0.000316 µM) 99.2% | viability, T/C (second compound 0.0949 µM, first compound 0.001 µM) 95.5% | viability, T/C (second compound 0.0949 µM, first compound 0.00316 µM) 89% | viability, T/C (second compound 0.0949 µM, first compound 0.01 µM) 85% | viability, T/C (second compound 0.0949 µM, first compound 0.0316 µM) 81.5% | viability, T/C (second compound 0.0949 µM, first compound 0.1 µM) 75.6% | viability, T/C (second compound 0.3 µM, first compound 0.000316 µM) 69.6% | viability, T/C (second compound 0.3 µM, first compound 0.001 µM) 70.9% | viability, T/C (second compound 0.3 µM, first compound 0.00316 µM) 67.6% | viability, T/C (second compound 0.3 µM, first compound 0.01 µM) 56.7% | viability, T/C (second compound 0.3 µM, first compound 0.0316 µM) 58.9% | viability, T/C (second compound 0.3 µM, first compound 0.1 µM) 61.8% | viability, T/C (second compound 0.949 µM, first compound 0.000316 µM) 65.3% | viability, T/C (second compound 0.949 µM, first compound 0.001 µM) 66.5% | viability, T/C (second compound 0.949 µM, first compound 0.00316 µM) 67.4% | viability, T/C (second compound 0.949 µM, first compound 0.01 µM) 56.8% | viability, T/C (second compound 0.949 µM, first compound 0.0316 µM) 57.2% | viability, T/C (second compound 0.949 µM, first compound 0.1 µM) 61.3% | viability, T/C (second compound 3 µM, first compound 0.000316 µM) 50.2% | viability, T/C (second compound 3 µM, first compound 0.001 µM) 55.5% | viability, T/C (second compound 3 µM, first compound 0.00316 µM) 49.9% | viability, T/C (second compound 3 µM, first compound 0.01 µM) 46.1% | viability, T/C (second compound 3 µM, first compound 0.0316 µM) 47.5% | viability, T/C (second compound 3 µM, first compound 0.1 µM) 48.3%
3.14 nM: IC50 (second compound 3 µM)
> 100 nM: IC50 (second compound 0.03 µM) | IC50 (second compound 0.0949 µM) | IC50 (second compound 0.3 µM) | IC50 (second compound 0.949 µM)

NC(=O)C(=Cn1cnc(-c2cc(C(F)(F)F)cc(C(F)(F)F)c2)n1)c1cncnc1 + CCN1C(C(=O)NC23CCC(C(=O)O)(CC2)CC3)C(c2cccc(Cl)c2F)C2(C(=O)Nc3cc(Cl)ccc32)C12CCCCC2
< 0.949 nM: IC50 (second compound 0.949 µM) | IC50 (second compound 3 µM)
77.4 nM: IC50 (second compound 0.0949 µM)
inactive: viability, T/C (second compound 0.03 µM, first compound 0.000949 µM) 89.7% | viability, T/C (second compound 0.03 µM, first compound 0.003 µM) 93.4% | viability, T/C (second compound 0.03 µM, first compound 0.00949 µM) 88.1% | viability, T/C (second compound 0.03 µM, first compound 0.03 µM) 83.7% | viability, T/C (second compound 0.03 µM, first compound 0.0949 µM) 73.8% | viability, T/C (second compound 0.03 µM, first compound 0.3 µM) 56.2% | viability, T/C (second compound 0.0949 µM, first compound 0.000949 µM) 84.4% | viability, T/C (second compound 0.0949 µM, first compound 0.003 µM) 85.4% | viability, T/C (second compound 0.0949 µM, first compound 0.00949 µM) 75.5% | viability, T/C (second compound 0.0949 µM, first compound 0.03 µM) 61.3% | viability, T/C (second compound 0.0949 µM, first compound 0.0949 µM) 48.8% | viability, T/C (second compound 0.0949 µM, first compound 0.3 µM) 28.9% | viability, T/C (second compound 0.3 µM, first compound 0.000949 µM) 60% | viability, T/C (second compound 0.3 µM, first compound 0.003 µM) 57.2% | viability, T/C (second compound 0.3 µM, first compound 0.00949 µM) 48.2% | viability, T/C (second compound 0.3 µM, first compound 0.03 µM) 32.6% | viability, T/C (second compound 0.3 µM, first compound 0.0949 µM) 24.9% | viability, T/C (second compound 0.949 µM, first compound 0.000949 µM) 49.2% | viability, T/C (second compound 0.949 µM, first compound 0.003 µM) 48.9% | viability, T/C (second compound 0.949 µM, first compound 0.00949 µM) 35.5% | viability, T/C (second compound 0.949 µM, first compound 0.03 µM) 11.2% | viability, T/C (second compound 3 µM, first compound 0.000949 µM) 39.3% | viability, T/C (second compound 3 µM, first compound 0.003 µM) 32.4% | viability, T/C (second compound 3 µM, first compound 0.00949 µM) 17.5%
active: viability, T/C (second compound 0.3 µM, first compound 0.3 µM) 6.51% | viability, T/C (second compound 0.949 µM, first compound 0.0949 µM) 3.85% | viability, T/C (second compound 0.949 µM, first compound 0.3 µM) 0.63% | viability, T/C (second compound 3 µM, first compound 0.03 µM) 3.73% | viability, T/C (second compound 3 µM, first compound 0.0949 µM) 1.87% | viability, T/C (second compound 3 µM, first compound 0.3 µM) 0.41%
> 300 nM: IC50 (second compound 0.03 µM)
6.42 nM: IC50 (second compound 0.3 µM)

NC(=O)C(=Cn1cnc(-c2cc(C(F)(F)F)cc(C(F)(F)F)c2)n1)c1cncnc1
inactive: viability, T/C (compound 0.000949 µM) 97.1% and 89.2% and 43.2% | viability, T/C (compound 0.003 µM) 96.8% and 85% and 52.7% | viability, T/C (compound 0.00949 µM) 99.3% and 95.9% and 24.4% | viability, T/C (compound 0.03 µM) 100% and 86.7% and 29.2% | viability, T/C (compound 0.0949 µM) 95.2% and 81.8% and 20.7% | viability, T/C (compound 0.3 µM) 97.6% and 91.7% and 30.1%
